Experimental data: PubChem BioAssay (NCI)
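Results reflect a 48-hour exposure of cells in 96-well plates to compound at five concentrations. TGI: total growth inhibition.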

Key:
Test in all cases: NCI anticancer screen, dose series, 48 h
HOP-92 NSCLC = tested on: HOP-92 NSCLC
UO-31 renal = tested on: UO-31 renal
OVCAR-3 ovarian = tested on: OVCAR-3 ovarian
EKVX NSCLC = tested on: EKVX NSCLC
RPMI-8226 leukemia = tested on: RPMI-8226 leukemia
SK-MEL-5 melanoma = tested on: SK-MEL-5 melanoma
ACHN renal = tested on: ACHN renal
MDA-N = tested on: MDA-N
SN12C renal = tested on: SN12C renal
SNB-19 CNS = tested on: SNB-19 CNS
MDA-MB-435 = tested on: MDA-MB-435
HT29 colon = tested on: HT29 colon
M14 melanoma = tested on: M14 melanoma
COLO 205 colon = tested on: COLO 205 colon
HCC-2998 colon = tested on: HCC-2998 colon
MCF7 breast = tested on: MCF7 breast
OVCAR-5 ovarian = tested on: OVCAR-5 ovarian
MALME-3M melanoma = tested on: MALME-3M melanoma
MDA-MB-231 breast = tested on: MDA-MB-231 breast
NCI-H23 lung = tested on: NCI-H23 lung
SK-MEL-28 melanoma = tested on: SK-MEL-28 melanoma
UACC-62 melanoma = tested on: UACC-62 melanoma
A549 NSCLC = tested on: A549 NSCLC
MOLT-4 leukemia = tested on: MOLT-4 leukemia
SR leukemia = tested on: SR leukemia
RXF 393 renal = tested on: RXF 393 renal
NCI-H226 lung = tested on: NCI-H226 lung
SF-268 CNS = tested on: SF-268 CNS
LOX IMVI melanoma = tested on: LOX IMVI melanoma
HL-60(TB) leukemia = tested on: HL-60(TB) leukemia
K-562 leukemia = tested on: K-562 leukemia
NCI-H460 lung = tested on: NCI-H460 lung
NCI/ADR-RES ovarian = tested on: NCI/ADR-RES ovarian
UACC-257 melanoma = tested on: UACC-257 melanoma
TK-10 renal = tested on: TK-10 renal
SK-OV-3 ovarian = tested on: SK-OV-3 ovarian
SW-620 colon = tested on: SW-620 colon
SF-539 CNS = tested on: SF-539 CNS
DU-145 prostate = tested on: DU-145 prostate
HCT-15 colon = tested on: HCT-15 colon
HCT-116 colon = tested on: HCT-116 colon
CCRF-CEM leukemia = tested on: CCRF-CEM leukemia
HOP-62 NSCLC = tested on: HOP-62 NSCLC
SF-295 CNS = tested on: SF-295 CNS
KM12 colon = tested on: KM12 colon
HS 578T breast = tested on: HS 578T breast
OVCAR-4 ovarian = tested on: OVCAR-4 ovarian
786-0 renal = tested on: 786-0 renal
OVCAR-8 ovarian = tested on: OVCAR-8 ovarian
U251 CNS = tested on: U251 CNS
SK-MEL-2 melanoma = tested on: SK-MEL-2 melanoma
PC-3 prostate = tested on: PC-3 prostate
A498 renal = tested on: A498 renal
IGROV1 ovarian = tested on: IGROV1 ovarian
SNB-75 CNS = tested on: SNB-75 CNS
NCI-H522 lung = tested on: NCI-H522 lung
T-47D breast = tested on: T-47D breast
CAKI-1 renal = tested on: CAKI-1 renal

For `Cc1nc2c(O)cc3c4c(n(Cc5ccccc5)c3c2nc1C)C(=O)CCC4`, which TGI (HOP-92 NSCLC) is on record?
Its TGI is 74 µM.

What about the TGI (UO-31 renal) of the same molecule?
Its TGI is > 100 µM.

What about the TGI (OVCAR-3 ovarian) of the same molecule?
The TGI was 83.2 µM.

What about the TGI (EKVX NSCLC) of the same molecule?
The TGI was > 100 µM.

What about the TGI (RPMI-8226 leukemia) of the same molecule?
Its TGI is > 100 µM.

And the TGI (SK-MEL-5 melanoma)?
Its TGI is > 100 µM.

What about the TGI (ACHN renal) of the same molecule?
The TGI was > 100 µM.

What about the TGI (MDA-N) of the same molecule?
Its TGI is > 100 µM.

And the TGI (SN12C renal)?
The TGI was > 100 µM.

And the TGI (SNB-19 CNS)?
Its TGI is > 100 µM.

What about the TGI (MDA-MB-435) of the same molecule?
Its TGI is > 100 µM.

And the TGI (HT29 colon)?
Its TGI is > 100 µM.

What about the TGI (M14 melanoma) of the same molecule?
The TGI was > 100 µM.

What about the TGI (COLO 205 colon) of the same molecule?
The TGI was > 100 µM.

And the TGI (HCC-2998 colon)?
The TGI was > 100 µM.

What about the TGI (MCF7 breast) of the same molecule?
The TGI was > 100 µM.

What about the TGI (OVCAR-5 ovarian) of the same molecule?
The TGI was > 100 µM.

And the TGI (MALME-3M melanoma)?
Its TGI is > 100 µM.

And the TGI (MDA-MB-231 breast)?
Its TGI is > 100 µM.

What about the TGI (NCI-H23 lung) of the same molecule?
The TGI was > 100 µM.

What about the TGI (SK-MEL-28 melanoma) of the same molecule?
Its TGI is 76.2 µM.

And the TGI (UACC-62 melanoma)?
Its TGI is > 100 µM.

What about the TGI (A549 NSCLC) of the same molecule?
The TGI was > 100 µM.

And the TGI (MOLT-4 leukemia)?
Its TGI is > 100 µM.

What about the TGI (SR leukemia) of the same molecule?
The TGI was > 100 µM.

What about the TGI (RXF 393 renal) of the same molecule?
Its TGI is 32.2 µM.

And the TGI (NCI-H226 lung)?
The TGI was > 100 µM.

What about the TGI (SF-268 CNS) of the same molecule?
The TGI was 50.9 µM.

And the TGI (LOX IMVI melanoma)?
Its TGI is > 100 µM.

And the TGI (HL-60(TB) leukemia)?
The TGI was > 100 µM.

And the TGI (K-562 leukemia)?
Its TGI is > 100 µM.

What about the TGI (NCI-H460 lung) of the same molecule?
The TGI was > 100 µM.

And the TGI (NCI/ADR-RES ovarian)?
The TGI was > 100 µM.

And the TGI (UACC-257 melanoma)?
Its TGI is > 100 µM.

What about the TGI (TK-10 renal) of the same molecule?
The TGI was > 100 µM.

What about the TGI (SK-OV-3 ovarian) of the same molecule?
Its TGI is 69.6 µM.

And the TGI (SW-620 colon)?
The TGI was > 100 µM.

What about the TGI (SF-539 CNS) of the same molecule?
The TGI was 48.1 µM.

What about the TGI (DU-145 prostate) of the same molecule?
Its TGI is > 100 µM.

What about the TGI (HCT-15 colon) of the same molecule?
Its TGI is > 100 µM.

And the TGI (HCT-116 colon)?
Its TGI is > 100 µM.

What about the TGI (CCRF-CEM leukemia) of the same molecule?
The TGI was > 100 µM.

And the TGI (HOP-62 NSCLC)?
The TGI was 39.9 µM.

What about the TGI (SF-295 CNS) of the same molecule?
Its TGI is > 100 µM.

And the TGI (KM12 colon)?
Its TGI is > 100 µM.

What about the TGI (HS 578T breast) of the same molecule?
Its TGI is > 100 µM.

What about the TGI (OVCAR-4 ovarian) of the same molecule?
The TGI was 59.3 µM.

And the TGI (786-0 renal)?
The TGI was 69.1 µM.

And the TGI (OVCAR-8 ovarian)?
The TGI was 52.6 µM.

And the TGI (U251 CNS)?
Its TGI is 64 µM.

What about the TGI (SK-MEL-2 melanoma) of the same molecule?
The TGI was 50.1 µM.

What about the TGI (PC-3 prostate) of the same molecule?
The TGI was > 100 µM.

And the TGI (A498 renal)?
The TGI was > 100 µM.

Which results are given for `O=[N+]([O-])c1cc(-c2nnc(C34CC5CC(CC(C5)C3)C4)o2)cc([N+](=O)[O-])c1`?
TGI (HOP-92 NSCLC): 94.6 µM; TGI (UO-31 renal): > 100 µM; TGI (OVCAR-3 ovarian): > 100 µM; TGI (IGROV1 ovarian): > 100 µM; TGI (EKVX NSCLC): > 100 µM; TGI (RPMI-8226 leukemia): > 100 µM; TGI (SK-MEL-5 melanoma): 44.8 µM; TGI (ACHN renal): > 100 µM; TGI (MDA-N): > 100 µM; TGI (SN12C renal): > 100 µM; TGI (SNB-19 CNS): > 100 µM; TGI (MDA-MB-435): 77 µM; TGI (HT29 colon): 32.2 µM; TGI (SNB-75 CNS): > 100 µM; TGI (M14 melanoma): 70.4 µM; TGI (COLO 205 colon): 42.4 µM; TGI (NCI-H522 lung): > 100 µM; TGI (HCC-2998 colon): > 100 µM; TGI (T-47D breast): > 100 µM; TGI (OVCAR-5 ovarian): > 100 µM; TGI (MALME-3M melanoma): > 100 µM; TGI (MDA-MB-231 breast): > 100 µM; TGI (NCI-H23 lung): > 100 µM; TGI (CAKI-1 renal): > 100 µM; TGI (SK-MEL-28 melanoma): > 100 µM; TGI (UACC-62 melanoma): > 100 µM; TGI (A549 NSCLC): > 100 µM; TGI (MOLT-4 leukemia): > 100 µM; TGI (SR leukemia): > 100 µM; TGI (RXF 393 renal): > 100 µM; TGI (NCI-H226 lung): > 100 µM; TGI (SF-268 CNS): > 100 µM; TGI (LOX IMVI melanoma): > 100 µM; TGI (HL-60(TB) leukemia): > 100 µM; TGI (K-562 leukemia): > 100 µM; TGI (NCI-H460 lung): > 100 µM; TGI (NCI/ADR-RES ovarian): > 100 µM; TGI (UACC-257 melanoma): > 100 µM; TGI (SK-OV-3 ovarian): > 100 µM; TGI (SW-620 colon): 37.8 µM; TGI (SF-539 CNS): > 100 µM; TGI (DU-145 prostate): > 100 µM; TGI (HCT-15 colon): > 100 µM; TGI (HCT-116 colon): > 100 µM; TGI (CCRF-CEM leukemia): > 100 µM; TGI (HOP-62 NSCLC): > 100 µM; TGI (SF-295 CNS): > 100 µM; TGI (KM12 colon): > 100 µM; TGI (HS 578T breast): > 100 µM; TGI (OVCAR-4 ovarian): > 100 µM; TGI (786-0 renal): > 100 µM; TGI (OVCAR-8 ovarian): > 100 µM; TGI (U251 CNS): > 100 µM; TGI (SK-MEL-2 melanoma): > 100 µM; TGI (PC-3 prostate): > 100 µM; TGI (A498 renal): > 100 µM
